Measured values taken from paper doi:10.1101/657387v2 (biorxiv, 2019).

What was measured:
Assay in all cases: whole-cell patch clamp, HEK-293T
Format in all cases: cell-based
TASK-3 (hTASK-3) [1] = target: T1, TASK-3 (hTASK-3) (Homo sapiens, UniProt Q9NPC2)
[2] = target: T2, TASK-3/TASK-1 (hTASK-3/hTASK-1) (Homo sapiens, UniProt O14649+Q9NPC2)
TASK-3 (hTASK-3) [3] = target: T1, TASK-3 (hTASK-3); settings: dose-response
TASK-3 (hTASK-3) [4] = target: T1, TASK-3 (hTASK-3); settings: read-out: % inhibition at 0.5 μM
[5] = target: T2, TASK-3/TASK-1 (hTASK-3/hTASK-1); settings: read-out: % inhibition at 0.5 μM

T1 sequence (Q9NPC2 whole entry): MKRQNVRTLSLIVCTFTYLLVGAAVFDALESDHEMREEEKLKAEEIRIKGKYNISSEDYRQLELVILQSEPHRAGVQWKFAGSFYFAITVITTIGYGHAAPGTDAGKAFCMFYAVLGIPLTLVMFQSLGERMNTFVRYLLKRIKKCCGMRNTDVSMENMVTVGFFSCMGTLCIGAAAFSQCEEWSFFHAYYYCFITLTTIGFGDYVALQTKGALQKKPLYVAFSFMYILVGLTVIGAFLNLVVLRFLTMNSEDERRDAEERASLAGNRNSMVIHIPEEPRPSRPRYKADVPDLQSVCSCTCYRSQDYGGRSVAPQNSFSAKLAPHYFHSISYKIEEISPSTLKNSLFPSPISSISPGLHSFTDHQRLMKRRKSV
T2 sequence (Q9NPC2 whole entry): as above
T2 sequence (O14649 whole entry): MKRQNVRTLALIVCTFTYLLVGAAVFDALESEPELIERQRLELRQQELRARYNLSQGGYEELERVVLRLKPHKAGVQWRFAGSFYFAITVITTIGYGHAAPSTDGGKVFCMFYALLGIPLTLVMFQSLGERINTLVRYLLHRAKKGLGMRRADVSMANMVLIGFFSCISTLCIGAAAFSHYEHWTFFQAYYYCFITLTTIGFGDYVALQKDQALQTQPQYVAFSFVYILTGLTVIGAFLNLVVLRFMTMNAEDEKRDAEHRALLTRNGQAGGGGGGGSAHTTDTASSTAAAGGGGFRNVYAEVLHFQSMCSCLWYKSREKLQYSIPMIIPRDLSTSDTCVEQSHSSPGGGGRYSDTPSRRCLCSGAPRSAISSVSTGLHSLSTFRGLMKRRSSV

Cc1ccc(SCc2cc(O)nc(N=C(N)Nc3ccc4c(c3)OCCO4)n2)cc1 [CHET3]
EC50 (TASK-3 (hTASK-3) [1]): 1400 ± 200 nM
EC50 [2]: 2500 ± 200 nM

Cc1ccc(SCc2cc(O)nc(N=C(N)Nc3ccc(C(C)(C)C)cc3)n2)cc1 [CHET3-2]
whole-cell patch clamp, HEK-293T (TASK-3 (hTASK-3) [3]): while CHET3-2 was inactive (Fig. 4B)

CCCC(=O)C1CCN(c2ncnc3c2CN(C(=O)c2ccc(-c4ccccc4)cc2)CC3)CC1 [PK-THPP]
inhibition at 0.5 µM (TASK-3 (hTASK-3) [4]): 86 ± 3%
inhibition at 0.5 µM [5]: 90 ± 2%

Cc1ccc(SCc2cc(O)nc(N=C(N)Nc3cccc4ccccc34)n2)cc1 [CHET3-1]
EC50 (TASK-3 (hTASK-3) [1]): 500 ± 100 nM
